Source: patent publication US20230123334A1, “AMINO LIPID COMPOUND, PREPARATION METHOD THEREFOR, AND APPLICATION THEREOF” (SHENZHEN SHENXIN BIOTECHNOLOGY CO., LTD., priority 2020, published 2023)

These compounds were tested on HEK293 cells (assay: Preliminary screening as mRNA vectors, EGFP mRNA transfection of HEK293 cells). Conditions: EGFP mRNA 50 ng per well, 96-well plates; percentage of GFP fluorescent cells relative to total number of cells (Hoechst).
Type: cell-based
How it was run: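 Each well of HEK293 cells received 50 ng of EGFP mRNA. Efficiency was expressed as percent GFP-expressing cells over Hoechst-defined total cell number.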
`CCCCCCCCCCCCCNc1nc(NCCCN2CCN(C)CC2)nc(SCCCCCCCCCCCC)n1` [Compound D9S12N13] was tested, and the “Absolute mRNA transfection efficiency in HEK293 cells” value (shortened to “Absolute mRNA transfection efficiency”) was 1.0%.
`CCCCCCCCCCCCCCCNc1nc(NCCCN2CCN(C)CC2)nc(SCCCCCCCCCCCC)n1` [Compound D9S12N15] was tested, and the “Absolute mRNA transfection efficiency” value was 0.0%.
With `CCCCCCCCCCCCCCCCNc1nc(NCCCN2CCN(C)CC2)nc(SCCCCCCCCCCCC)n1` [Compound D9S12N16] the “Absolute mRNA transfection efficiency” value was 1.2%.
With `CCCCCCCCCCCCCCCCCCNc1nc(NCCCN2CCN(C)CC2)nc(SCCCCCCCCCCCC)n1` [Compound D9S12N18] the “Absolute mRNA transfection efficiency” value was 0.2%.
`CCCCCCCCCCCCCCSc1nc(NCCCCCC)nc(NCCCN2CCN(C)CC2)n1` [Compound D9S14N6] was tested, and the “Absolute mRNA transfection efficiency” value was 27.2%.
For `CCCCCCCCCCCCCCSc1nc(NCCCCCCC)nc(NCCCN2CCN(C)CC2)n1` [Compound D9S14N7], the “Absolute mRNA transfection efficiency” value was 50.1%.
In the case of `CCCCCCCCCCCCCCSc1nc(NCCCCCCCC)nc(NCCCN2CCN(C)CC2)n1` [Compound D9S14N8], the “Absolute mRNA transfection efficiency” value is reported as 24.8%.
`CCCCCCCCCCCCCCSc1nc(NCCCCCCCCC)nc(NCCCN2CCN(C)CC2)n1` [Compound D9S14N9] was tested, and the “Absolute mRNA transfection efficiency” value was 23.7%.
With `CCCCCCCCCCCCCCSc1nc(NCCCCCCCCCCC)nc(NCCCN2CCN(C)CC2)n1` [Compound D9S14N11] the “Absolute mRNA transfection efficiency” value was 15.6%.
With `CCCCCCCCCCCCCCSc1nc(NCCCCCCCCCCCC)nc(NCCCN2CCN(C)CC2)n1` [Compound D9S14N12] the “Absolute mRNA transfection efficiency” value was 8.0%.
`CCCCCCCCCCCCCCSc1nc(NCCCCCCCCCCCCC)nc(NCCCN2CCN(C)CC2)n1` [Compound D9S14N13] was tested, and the “Absolute mRNA transfection efficiency” value was 4.8%.
In the case of `CCCCCCCCCCCCCCCNc1nc(NCCCN2CCN(C)CC2)nc(SCCCCCCCCCCCCCC)n1` [Compound D9S14N15], the “Absolute mRNA transfection efficiency” value is reported as 0.5%.
`CCCCCCCCCCCCCCCCNc1nc(NCCCN2CCN(C)CC2)nc(SCCCCCCCCCCCCCC)n1` [Compound D9S14N16] was tested, and the “Absolute mRNA transfection efficiency” value was 0.8%.
With `CCCCCCCCCCCCCCCCCCNc1nc(NCCCN2CCN(C)CC2)nc(SCCCCCCCCCCCCCC)n1` [Compound D9S14N18] the “Absolute mRNA transfection efficiency” value was 0.3%.
In the case of `CCCCCCCCCCCCCCCSc1nc(NCCCCCC)nc(NCCCN2CCN(C)CC2)n1` [Compound D9S15N6], the “Absolute mRNA transfection efficiency” value is reported as 30.7%.
With `CCCCCCCCCCCCCCCSc1nc(NCCCCCCC)nc(NCCCN2CCN(C)CC2)n1` [Compound D9S15N7] the “Absolute mRNA transfection efficiency” value was 15.9%.
For `CCCCCCCCCCCCCCCSc1nc(NCCCCCCCC)nc(NCCCN2CCN(C)CC2)n1` [Compound D9S15N8], the “Absolute mRNA transfection efficiency” value was 10.8%.
In the case of `CCCCCCCCCCCCCCCSc1nc(NCCCCCCCCC)nc(NCCCN2CCN(C)CC2)n1` [Compound D9S15N9], the “Absolute mRNA transfection efficiency” value is reported as 18.5%.
For `CCCCCCCCCCCCCCCSc1nc(NCCCCCCCCCCC)nc(NCCCN2CCN(C)CC2)n1` [Compound D9S15N11], the “Absolute mRNA transfection efficiency” value was 9.2%.
For `CCCCCCCCCCCCCCCSc1nc(NCCCCCCCCCCCC)nc(NCCCN2CCN(C)CC2)n1` [Compound D9S15N12], the “Absolute mRNA transfection efficiency” value was 4.4%.
For `CCCCCCCCCCCCCCCSc1nc(NCCCCCCCCCCCCC)nc(NCCCN2CCN(C)CC2)n1` [Compound D9S15N13], the “Absolute mRNA transfection efficiency” value was 2.0%.
For `CCCCCCCCCCCCCCCNc1nc(NCCCN2CCN(C)CC2)nc(SCCCCCCCCCCCCCCC)n1` [Compound D9S15N15], the “Absolute mRNA transfection efficiency” value was 0.2%.
In the case of `CCCCCCCCCCCCCCCCNc1nc(NCCCN2CCN(C)CC2)nc(SCCCCCCCCCCCCCCC)n1` [Compound D9S15N16], the “Absolute mRNA transfection efficiency” value is reported as 2.7%.
In the case of `CCCCCCCCCCCCCCCCCCNc1nc(NCCCN2CCN(C)CC2)nc(SCCCCCCCCCCCCCCC)n1` [Compound D9S15N18], the “Absolute mRNA transfection efficiency” value is reported as 0.3%.
For `CCCCCCCCCCCCCCCCSc1nc(NCCCCCC)nc(NCCCN2CCN(C)CC2)n1` [Compound D9S16N6], the “Absolute mRNA transfection efficiency” value was 85.7%.
For `CCCCCCCCCCCCCCCCSc1nc(NCCCCCCC)nc(NCCCN2CCN(C)CC2)n1` [Compound D9S16N7], the “Absolute mRNA transfection efficiency” value was 97.9%.
`CCCCCCCCCCCCCCCCSc1nc(NCCCCCCCC)nc(NCCCN2CCN(C)CC2)n1` [Compound D9S16N8] was tested, and the “Absolute mRNA transfection efficiency” value was 71.3%.
`CCCCCCCCCCCCCCCCSc1nc(NCCCCCCCCC)nc(NCCCN2CCN(C)CC2)n1` [Compound D9S16N9] was tested, and the “Absolute mRNA transfection efficiency” value was 54.4%.
In the case of `CCCCCCCCCCCCCCCCSc1nc(NCCCCCCCCCCC)nc(NCCCN2CCN(C)CC2)n1` [Compound D9S16N11], the “Absolute mRNA transfection efficiency” value is reported as 68.4%.
In the case of `CCCCCCCCCCCCCCCCSc1nc(NCCCCCCCCCCCC)nc(NCCCN2CCN(C)CC2)n1` [Compound D9S16N12], the “Absolute mRNA transfection efficiency” value is reported as 12.4%.
For `CCCCCCCCCCCCCCCCSc1nc(NCCCCCCCCCCCCC)nc(NCCCN2CCN(C)CC2)n1` [Compound D9S16N13], the “Absolute mRNA transfection efficiency” value was 1.4%.
For `CCCCCCCCCCCCCCCCSc1nc(NCCCCCCCCCCCCCCC)nc(NCCCN2CCN(C)CC2)n1` [Compound D9S16N15], the “Absolute mRNA transfection efficiency” value was 0.2%.
In the case of `CCCCCCCCCCCCCCCCNc1nc(NCCCN2CCN(C)CC2)nc(SCCCCCCCCCCCCCCCC)n1` [Compound D9S16N16], the “Absolute mRNA transfection efficiency” value is reported as 0.1%.
`CCCCCCCCCCCCCCCCCCNc1nc(NCCCN2CCN(C)CC2)nc(SCCCCCCCCCCCCCCCC)n1` [Compound D9S16N18] was tested, and the “Absolute mRNA transfection efficiency” value was 0.1%.
`CCCCCCCCCCCCCCCCCCSc1nc(NCCCCCC)nc(NCCCN2CCN(C)CC2)n1` [Compound D9S18N6] was tested, and the “Absolute mRNA transfection efficiency” value was 55.4%.
For `CCCCCCCCCCCCCCCCCCSc1nc(NCCCCCCC)nc(NCCCN2CCN(C)CC2)n1` [Compound D9S18N7], the “Absolute mRNA transfection efficiency” value was 86.6%.
`CCCCCCCCCCCCCCCCCCSc1nc(NCCCCCCCC)nc(NCCCN2CCN(C)CC2)n1` [Compound D9S18N8] was tested, and the “Absolute mRNA transfection efficiency” value was 25.8%.
In the case of `CCCCCCCCCCCCCCCCCCSc1nc(NCCCCCCCCC)nc(NCCCN2CCN(C)CC2)n1` [Compound D9S18N9], the “Absolute mRNA transfection efficiency” value is reported as 7.6%.
For `CCCCCCCCCCCCCCCCCCSc1nc(NCCCCCCCCCCC)nc(NCCCN2CCN(C)CC2)n1` [Compound D9S18N11], the “Absolute mRNA transfection efficiency” value was 4.3%.
For `CCCCCCCCCCCCCCCCCCSc1nc(NCCCCCCCCCCCC)nc(NCCCN2CCN(C)CC2)n1` [Compound D9S18N12], the “Absolute mRNA transfection efficiency” value was 1.7%.
For `CCCCCCCCCCCCCCCCCCSc1nc(NCCCCCCCCCCCCC)nc(NCCCN2CCN(C)CC2)n1` [Compound D9S18N13], the “Absolute mRNA transfection efficiency” value was 0.0%.
For `CCCCCCCCCCCCCCCCCCSc1nc(NCCCCCCCCCCCCCCC)nc(NCCCN2CCN(C)CC2)n1` [Compound D9S18N15], the “Absolute mRNA transfection efficiency” value was 0.0%.
For `CCCCCCCCCCCCCCCCCCSc1nc(NCCCCCCCCCCCCCCCC)nc(NCCCN2CCN(C)CC2)n1` [Compound D9S18N16], the “Absolute mRNA transfection efficiency” value was 0.1%.
With `CCCCCCCCCCCCCCCCCCNc1nc(NCCCN2CCN(C)CC2)nc(SCCCCCCCCCCCCCCCCCC)n1` [Compound D9S18N18] the “Absolute mRNA transfection efficiency” value was 0.1%.
For `CCCCCCNc1nc(NCC2CCN(C)CC2)nc(SCCCCCC)n1` [Compound D10S6N6], the “Absolute mRNA transfection efficiency” value was 0.3%.
`CCCCCCCNc1nc(NCC2CCN(C)CC2)nc(SCCCCCC)n1` [Compound D10S6N7] was tested, and the “Absolute mRNA transfection efficiency” value was 5.5%.
For `CCCCCCCCNc1nc(NCC2CCN(C)CC2)nc(SCCCCCC)n1` [Compound D10S6N8], the “Absolute mRNA transfection efficiency” value was 1.4%.
For `CCCCCCCCCNc1nc(NCC2CCN(C)CC2)nc(SCCCCCC)n1` [Compound D10S6N9], the “Absolute mRNA transfection efficiency” value was 1.2%.
For `CCCCCCCCCCCNc1nc(NCC2CCN(C)CC2)nc(SCCCCCC)n1` [Compound D10S6N11], the “Absolute mRNA transfection efficiency” value was 4.0%.
For `CCCCCCCCCCCCNc1nc(NCC2CCN(C)CC2)nc(SCCCCCC)n1` [Compound D10S6N12], the “Absolute mRNA transfection efficiency” value was 9.6%.
`CCCCCCCCCCCCCNc1nc(NCC2CCN(C)CC2)nc(SCCCCCC)n1` [Compound D10S6N13] was tested, and the “Absolute mRNA transfection efficiency” value was 22.7%.
With `CCCCCCCCCCCCCCCNc1nc(NCC2CCN(C)CC2)nc(SCCCCCC)n1` [Compound D10S6N15] the “Absolute mRNA transfection efficiency” value was 7.9%.
With `CCCCCCCCCCCCCCCCNc1nc(NCC2CCN(C)CC2)nc(SCCCCCC)n1` [Compound D10S6N16] the “Absolute mRNA transfection efficiency” value was 41.5%.
With `CCCCCCCCCCCCCCCCCCNc1nc(NCC2CCN(C)CC2)nc(SCCCCCC)n1` [Compound D10S6N18] the “Absolute mRNA transfection efficiency” value was 41.4%.
For `CCCCCCSc1nc(NCC2CCN(C)CC2)nc(SCCCCCC)n1` [Compound D10S6S6], the “Absolute mRNA transfection efficiency” value was 14.4%.
With `CCCCCCCSc1nc(NCC2CCN(C)CC2)nc(SCCCCCC)n1` [Compound D10S6S7] the “Absolute mRNA transfection efficiency” value was 19.7%.
`CCCCCCCCSc1nc(NCC2CCN(C)CC2)nc(SCCCCCC)n1` [Compound D10S6S8] was tested, and the “Absolute mRNA transfection efficiency” value was 6.6%.
`CCCCCCCCCSc1nc(NCC2CCN(C)CC2)nc(SCCCCCC)n1` [Compound D10S6S9] was tested, and the “Absolute mRNA transfection efficiency” value was 14.7%.
`CCCCCCCCCCSc1nc(NCC2CCN(C)CC2)nc(SCCCCCC)n1` [Compound D10S6S10] was tested, and the “Absolute mRNA transfection efficiency” value was 22.4%.
With `CCCCCCCCCCCSc1nc(NCC2CCN(C)CC2)nc(SCCCCCC)n1` [Compound D10S6S11] the “Absolute mRNA transfection efficiency” value was 15.9%.
`CCCCCCCCCCCCSc1nc(NCC2CCN(C)CC2)nc(SCCCCCC)n1` [Compound D10S6S12] was tested, and the “Absolute mRNA transfection efficiency” value was 41.2%.
For `CCCCCCCCCCCCCCSc1nc(NCC2CCN(C)CC2)nc(SCCCCCC)n1` [Compound D10S6S14], the “Absolute mRNA transfection efficiency” value was 54.4%.
In the case of `CCCCCCCCCCCCCCCSc1nc(NCC2CCN(C)CC2)nc(SCCCCCC)n1` [Compound D10S6S15], the “Absolute mRNA transfection efficiency” value is reported as 40.0%.
In the case of `CCCCCCCCCCCCCCCCSc1nc(NCC2CCN(C)CC2)nc(SCCCCCC)n1` [Compound D10S6S16], the “Absolute mRNA transfection efficiency” value is reported as 85.5%.
